Assay results taken from patent publication US8003136B2, “Standardization of botanical products utilizing biological activity as a marker” (priority 2004, dated 2011).
≈ marks a conversion by molar mass, not a printed value. Where two headings read alike, the source gives them in different places.

How the values were obtained:
E. coli strain ORN178 = assay: MIC and MBC against E. coli strain ORN178; format: cell-based; details: for concentration determined to be non-inhibitory (up to): inhibitor alone
Procedure: Minimum inhibition concentration (MIC) will be tested in appropriate liquid media in 96-well microtiter plates. Each well contains 5×10^5 CFU/ml of test bacteria, serially diluted extracts and medium. In some cases when chemical solvents are used, it will be tested simultaneously with the test compounds to ensure the absence of antimicrobial activity. Triplicate samples are to be performed.
After 10 min at 37° C., the treated bacterial (or fungal) culture will be diluted and viable colony counts determined. The ability of goldenseal extract in killing test organisms will be elucidated.
Antimicrobial Characteristics of Goldenseal: Antimicrobial activities of SHF NOP certified Hydrastis were evaluated and compared to that of pure chemical berberine sulfate and berberine chloride. […] The synergistic effects of berberine with the known MDR pump inhibitor (reserpine and orthovanadate) as well as Hydrastis root extracts with leaf extracts were also determined. Please refer to the Materials and Methods section for detailed protocol. All extracts were lyophilized and reconstituted in H2O.

[1] = test system: McF7, a breast epithelial cell line; assay: MTS cell proliferation assay, McF7; format: cell-based
Source text: Another study at Clemson examined the anti-tumor properties of berberine when combined with pump inhibitory characteristics of leaf extracts from Hydrastis. This combination inhibited proliferation of both CaCo2, a colon epithelial cell line, and McF7, a breast epithelial cell line. […] Anti-tumor properties block uncontrolled growth, while pump inhibitory properties aid in lowering the dosage of drugs needed to treat the patient. MTS assay was used to measure cell proliferation. Cell proliferation of McF7 was reduced to 45% of the control when treated with 2% of berberine. […] However, a synergetic effect was observed when combining 0.5% berberine with 1.5% leaf extract. Proliferation of McF7 was reduced to 59% compared to the untreated cells. The Cell Titer 96® AQueous Non-radioactive Cell proliferation Assay manufactured by Promega, is a colorimetric method used to measure dehydrogenase activity found in metabolically active cells. The MTS is reduced to formazan in the presence of metabolically active cells and the absorbance of formazan is measured spectrophotometrically. Two days post subculture, cells will be rinsed twice with respective media, harvested, and the cell concentration adjusted to 1×10^5 cells/ml. Fifty μl of the cell suspension will be added to the individual wells of a 96-well microtiter plate. […] At the end of the incubation period, absorbance will be recorded at 490 nm.

[2] = test system: CaCo2, a colon epithelial cell line; assay: MTS cell proliferation assay, CaCo2; format: cell-based
Procedure: Another study at Clemson examined the anti-tumor properties of berberine when combined with pump inhibitory characteristics of leaf extracts from Hydrastis. […] Anti-tumor properties block uncontrolled growth, while pump inhibitory properties aid in lowering the dosage of drugs needed to treat the patient.
MTS assay was used to measure cell proliferation.
The MTS is reduced to formazan in the presence of metabolically active cells and the absorbance of formazan is measured spectrophotometrically. Two days post subculture, cells will be rinsed twice with respective media, harvested, and the cell concentration adjusted to 1×10^5 cells/ml. Fifty μl of the cell suspension will be added to the individual wells of a 96-well microtiter plate. Each well will contain 50 μl of the test sample (extract) or standard reference drug. Plates will be incubated for 48 to 72 hr at 37° C. in a CO2 incubator. After incubation, 20 μl of MTS/PMS solution will be added, and the plates incubated for an additional 1 to 4 hr. At the end of the incubation period, absorbance will be recorded at 490 nm.

Streptococcus mutans = details: Hwang (2003); cited from earlier work
[3] = test system: 15 strains of Helicobacter pylori; details: Mahady, 2003; cited from earlier work
Giardia = details: three divided doses for 6 days; berberine 5 mg/kg/day, metronidazole 10 mg/kg/day; cited from earlier work
Giardiasis = details: berberine 10 mg/kg/day for 10 days; metronidazole 20 mg/kg/day for 5-7 days; cited from earlier work
[4] = test system: human gastric carcinoma SNU-5 cells; details: SNU-5 cell line; cited from earlier work
[5] = test system: HT-1080 (human fibrosarcoma); details: cited from earlier work
[6] = test system: SNU-638 (human stomach adenocarcinoma); details: cited from earlier work
human tumour HeLa = details: cited from earlier work
murine leukemia L1210 = details: cited from earlier work
transplanted B16 line = details: day 16, doses of 5 and 10 mg/kg; cited from earlier work
[7] = test system: COX-2 transcriptional activity in human colon cancer cells; details: dose- and time-dependent; cited from earlier work
hepatoma HepG2 cells = details: cited from earlier work
[8] = test system: Chang (normal) liver cells; details: cited from earlier work
[9] = oral, 32 patients, 3 months; cited from earlier work
[10] = hyperlipidemic hamsters; cited from earlier work
[11] = in 2.5 hrs; cited from earlier work
[12] = test system: Bifidobacterium adolescentis, Lactobacillus acidophilus, and Lactobacillus casei; details: cited from earlier work
SA-1199B = assay: MIC against Staph. strain SA-1199B (over expresses NorA MDR efflux protein); format: cell-based
Source text: (§1) Additional preliminary data regarding the potential synergistic activity of Hydrastis leaf on two Staph. strains SA-1199B and SA-K2068 was developed using Hydrastis extracts. […]

SA-K2068 = assay: MIC against Staph. strain SA-K2068 (MDR efflux pump distinct from NorA); format: cell-based
Source text: as §1

[13] = test system: Human gastric adenocarcinoma (AGS) cells; assay: growth reduction of AGS cells; format: cell-based
Source text: Hydrastis leaf extract produced activity slightly less than the control or root extract but contained one fifth of the berberine indicating synergistic and/or additive compounds exist in the leaf. Antineoplastic—Cancer Cell Cultures. This assay measures the ability of Hydrastis to stimulate or arrest metabolic activity of tumor cells. Human gastric adenocarcinoma (AGS), CaCo2 colon cancer cells and normal colon epithelial tissue (ATCC) will be grown in Petri plates on Dulbecco's Modified Eagle Medium (DME) with 4 mM L-glutamine, 4.5 g/l glucose and 10% fetal bovine serum. CRL 7368 Breast Cancer cells and CRL 7367 Fibroblast control cells will be grown in Petri plates on DME with 4 mM L-glutamine, 4.5 g/l glucose, 1.5 g/l sodium bicarbonate and 10% fetal bovine serum. A 95% confluent layer of healthy cells will be divided as follows: surface media will be poured from the plates so that the cells are not dislodged. Ten milliliters of sterile phosphate-buffered saline (PBS) will be added to the plates to rinse the cell layer and then discarded. […] Cellular release by the trypsin is indicated when the cell layer moves when the plate is tilted. Dislodged cells will be added to 15 ml sterile tubes containing 1 ml calf serum. […] The cellular pellet is suspended in 5 ml of medium by mixing. A cell suspension aliquot (0.1 ml) is added to 0.9 ml of 0.4% Trypan Blue and mixed. Cell counts will be made using a hemocytometer charged with the cell suspension. Aliquots of the cell suspension (based on cell count) will be added to Petri plates, then 15 ml of media will be added and the plates incubated at 37° C. in a CO2 incubator. Cells will be checked daily for contamination and morphology. Media will be replaced every 2 to 3 days with fresh medium. The Cell Titer 96® AQueous Non-radioactive Cell proliferation Assay manufactured by Promega, is a colorimetric method used to measure dehydrogenase activity found in metabolically active cells. The MTS is reduced to formazan in the presence of metabolically active cells and the absorbance of formazan is measured spectrophotometrically. Two days post subculture, cells will be rinsed twice with respective media, harvested, and the cell concentration adjusted to 1×10^5 cells/ml. Fifty μl of the cell suspension will be added to the individual wells of a 96-well microtiter plate. Each well will contain 50 μl of the test sample (extract) or standard reference drug. Plates will be incubated for 48 to 72 hr at 37° C. in a CO2 incubator. After incubation, 20 μl of MTS/PMS solution will be added, and the plates incubated for an additional 1 to 4 hr. At the end of the incubation period, absorbance will be recorded at 490 nm.

[14] = 10 μg/ml of reserpine or 2 mM of orthovanadate supplemented

COc1ccc2cc3[n+](cc2c1OC)CCc1cc2c(cc1-3)OCO2 [berberine]
MBC of berberine reduced to (E. coli strain ORN178; [14]): ¼ | MIC of berberine reduced by (E. coli strain ORN178; [14]): half | MBC (E. coli strain ORN178; Escherichia coli, ORN178, berberine alone, read-out: MBC (μg/ml berberine)): 125 µg/mL | MIC (E. coli strain ORN178; Escherichia coli, ORN178, berberine alone, read-out: MIC (μg/ml berberine)): 62.5 µg/mL | Proliferation of McF7 compared to the untreated cells ([1]; 0.5% berberine combined with 1.5% leaf extract): 59% | Cell proliferation of McF7, % of the control ([1]; treated at a concentration of 2%): 45% | cell proliferation rate, CaCo2 ([2]; combination of 0.5% berberine and 0.5% leaf extract): 48% | cell proliferation, CaCo2 ([2]; treated with 0.5%): 75% | Minimum Inhibitory Concentration (MIC) (Streptococcus mutans): 125 µg/mL | MIC50 [3]: 12.5 µg/mL | subjects Giardia-free upon stool analysis (Giardia): 68% | subjects asymptomatic / resolution of symptoms (Giardia): 48% | negative stool specimens after 10 days (Giardiasis): Ninety | remained negative one month later (Giardiasis): 83% | IC50 [4]: 48 µM | IC50 [5]: 3.2 µg/mL | IC50 [6]: 3.4 µg/mL | IC50 (human tumour HeLa; Jantova, 2003): less than 4 microg mL(−1) | IC50 (human tumour HeLa; Kettman, 2004): less than 4 microg/ml | IC50 (murine leukemia L1210; Jantova, 2003): less than 4 microg mL(−1) | IC50 (murine leukemia L1210; Kettman, 2004): less than 4 microg/ml | tumor volume (transplanted B16 line): significant reduction | concentrations that inhibit COX-2 transcriptional activity [7]: higher than 0.3 microM | cytotoxicity (hepatoma HepG2 cells): significant cytotoxicity | cytotoxicity [8]: ineffective | reduction of LDL-cholesterol [9]: 25% | reduction of serum cholesterol [9]: 29% | reduction of triglycerides [9]: 35% | increase in hepatic LDLR mRNA [10]: 3.5 fold | increase in hepatic LDLR protein [10]: 2.6 fold | reduction of LDL-cholesterol [10]: 42% | reduction of serum cholesterol [10]: 40% | absorbed in the intestine [11]: less than 5% | inhibition of "friendly" bacteria [12]: weak or no inhibition

O=C(O)c1cn(C2CC2)c2cc(N3CCNCC3)c(F)cc2c1=O [Ciprofloxacin]
MIC (SA-1199B; +312.5 μg/mL leaf ext.): 2 µg/mL | MIC (SA-1199B; +625 μg/mL leaf ext.): 2 µg/mL | MIC (SA-1199B; +1250 μg/mL leaf ext.): < 0.5 µg/mL | MIC (SA-1199B; +5~20 μg/mL Reserpine): 1 µg/mL | MIC (SA-1199B; agent alone): 8 µg/mL | MIC (SA-K2068; read-out: SA K2068 MIC, +312.5 μg/mL leaf ext.): 0.5 µg/mL | MIC (SA-K2068; read-out: SA K2068 MIC, +625 μg/mL leaf ext.): 0.5 µg/mL | MIC (SA-K2068; read-out: SA K2068 MIC, +5~20 μg/mL Reserpine): 0.5 µg/mL | MIC (SA-K2068; read-out: SA K2068 MIC, agent alone): 4 µg/mL

COC(=O)[C@H]1[C@H]2C[C@@H]3c4[nH]c5cc(OC)ccc5c4CCN3C[C@H]2C[C@@H](OC(=O)c2cc(OC)c(OC)c(OC)c2)[C@@H]1OC [reserpine]
concentration determined to be non-inhibitory (up to) (E. coli strain ORN178): Up to 5000 μg/ml

Cc1ncc([N+](=O)[O-])n1CCO [metronidazole]
subjects Giardia-free upon stool analysis (Giardia): All | subjects asymptomatic / resolution of symptoms (Giardia): 33% | negative stool specimens after 10 days (Giardiasis): 95% | remained negative one month later (Giardiasis): 90%

COc1ccc2c(c1OC)C(=O)O[C@@H]2[C@H]1c2cc3c(cc2CCN1C)OCO3 [beta-hydrastine]
MIC50 [3]: 100.0 µg/mL (≈ 261 µM)

COc1ccc2cc3[n+](cc2c1OC)CCc1cc2c(cc1-3)OCO2 [Berberine chloride]
% growth reduction of AGS cells ([13]; first volume column, unit μl, berberine chloride control 500 μg/ml): .7% | % growth reduction of AGS cells ([13]; fourth volume column, unit μl): 2.6% | % growth reduction of AGS cells ([13]; head printed '0 μl'): 4.2% | % growth reduction of AGS cells ([13]; head printed '6 μl'): 2.1% | % growth reduction of AGS cells ([13]; second volume column, unit μl): .5% | % growth reduction of AGS cells ([13]; third volume column, unit μl): 3.7%

[O]=[V]([O-])([O-])[O-] [orthovanadate]
concentration determined to be non-inhibitory (up to) (E. coli strain ORN178): ≤ 4 mM
